Assay results from patent US7250433B2, “Tetrazole and oxadiazolone substituted β-amino acid derivatives” (Warner Lambert Company LLC, priority 2003, dated 2007).

In the case of `CC(C)CCC[C@@H](C)CCC(CN)c1nnn[nH]1` (stereo partly drawn), the melting point is reported as 185 °C (dec.). For `NCC(CC1CCCCC1)c1nnn[nH]1` (stereo not drawn), the melting point was > 250 °C (dec.). With `CC(C)C(C)C(CN)c1nnn[nH]1` (stereo not drawn) the melting point was > 250 °C (dec.). In the case of `CCC(C(C)C)C(CN)c1nnn[nH]1` (stereo not drawn), the melting point is reported as 205 °C (dec.). In the case of `CC(CC1CCCC1)C(CN)c1nnn[nH]1` (stereo not drawn), the melting point is reported as 194 °C (dec.). In the case of `CC(CC1CCCCC1)C(CN)c1nnn[nH]1` (stereo not drawn), the melting point is reported as 216 °C (dec.). With `CC(Cc1cccc(C(F)(F)F)c1)C(CN)c1nnn[nH]1` (stereo not drawn) the melting point was 163 °C (dec.). In the case of `CC(CCc1ccccc1)C(CN)c1nnn[nH]1` (stereo not drawn), the melting point is reported as 152 °C (dec.). With `CC(C)C1CC1(CN)c1nnn[nH]1` (stereo not drawn) the melting point was > 250 °C (dec.). In the case of `CCC(CC)C1CC1(CN)c1nnn[nH]1` (stereo not drawn), the melting point is reported as > 250 °C (dec.). With `NCC1(C(=O)O)CC12CCCC2` (stereo not drawn) the melting point was 231 to 235 °C (dec.). Compound `Cl.NCC1(c2noc(=O)[nH]2)CC12CCCC2` (stereo not drawn) has a melting point of 206 to 208 °C. With `Cl.NCC1(c2noc(=O)[nH]2)CC12CCCCC2` (stereo not drawn) the melting point was 179 to 181 °C (dec.). For `CC(C)C1CC1(CN)C(=O)O.Cl` (stereo not drawn), the melting point was 245 to 246 °C. For `CC(C)CC1CC1(CN)C(=O)O.Cl` (stereo not drawn), the melting point was 254 to 255 °C. `CC(C)C1CC1(CN)c1noc(=O)[nH]1.Cl` (stereo not drawn) showed a melting point of 178 to 179 °C. `CC(C)CC1CC1(CN)c1noc(=O)[nH]1.Cl` (stereo not drawn) gave a melting point of 181 to 182 °C. For `CC(Cc1ccc(F)cc1)C(CN)c1nnn[nH]1` (stereo not drawn) [Example 26, 4-(4-Fluoro-phenyl)-3-methyl-2-(1H-tetrazol-5-yl)-butylamine], the melting point was 186 °C (dec.).
